The term IC50 denotes the concentration needed to halve the response being measured.

Results on 15 compounds are retold here after US20250034135A1, “ANTI-APOPTOTIC PROTEIN BCL-2 INHIBITOR, PHARMACEUTICAL COMPOSITION AND USES THEREOF” (HANGZHOU HEALZEN THERAPEUTICS CO., LTD., priority 2021, published 2025).

The structures appear in SMILES notation.

Chain of BCL2 (P10415 whole entry): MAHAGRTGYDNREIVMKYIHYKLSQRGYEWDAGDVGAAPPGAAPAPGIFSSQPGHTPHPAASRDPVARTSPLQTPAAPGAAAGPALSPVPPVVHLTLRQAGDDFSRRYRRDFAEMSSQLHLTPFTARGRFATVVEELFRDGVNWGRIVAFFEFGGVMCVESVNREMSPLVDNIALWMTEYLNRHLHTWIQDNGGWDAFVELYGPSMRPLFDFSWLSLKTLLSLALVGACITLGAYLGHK

The assay addresses BCL2 (Homo sapiens (Human), UniProt P10415). The experiment in a line: Molecular level activity test of anti-apoptotic protein BCL2 (HTRF, binding to Bim peptide). To be noted: HTRF, binding of BCL2 to Bim peptide; read-out: BCL2 nM (inhibitory activity, IC50). The method in brief:
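Disruption of the BCL2/Bim peptide interaction is detected by homogeneous time-resolved fluorescence, using anti-His and streptavidin-XL665 reagents against His-tagged protein and biotin-tagged peptide. Compound exposure lasts 1 h before reagent addition; plates then sit 4 h at room temperature.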
For orientation: TR-FRET usually uses a lanthanide donor and a delayed reading to cut background.
With `COc1ccc(CN2CCN(C3CC4(CCN(c5ccc(C(=O)NS(=O)(=O)c6cc([N+](=O)[O-])c(NCC7CCOCC7)c7[nH]cnc67)c(N6CCOc7nc8[nH]ccc8cc76)c5)CC4)C3)C(c3ccccc3C(C)C)C2)cc1` (stereo not drawn) [compound 091, 2-(2,3-dihydropyrrolo[3′,2′:5,6]pyridino[2,3-b][1,4]oxazin-1 (6H)-yl)-4-(2-(2-(2-isopropylphenyl)-4-(4-methoxybenzyl)piperazin-1-yl)-7-azaspiro[3.5]non-7-yl)-N-((6-nitro-7-(((tetrahydro-2H-pyran-4-yl)methyl)amino)-1H-benzo[d]imidazol-4-yl)sulfonyl)benzamide], the concentration for half-maximal inhibition (IC50) was < 10 nM.

For `COc1ccc(CN2CCN(C3CC4(CCN(c5ccc(C(=O)NS(=O)(=O)c6cc([N+](=O)[O-])c(NCC7CCOCC7)c7[nH]cnc67)c(N6CCCOc7nc8[nH]ccc8cc76)c5)CC4)C3)C(c3ccccc3C(C)C)C2)cc1` (stereo not drawn) [compound 092, 2-(3,4-dihydro-2H-pyrrolo[3′,2′:5,6]pyridino[2,3-b][1,4]oxazacyclohept-1 (7H)-yl)-4-(2-(2-(2-isopropylphenyl)-4-(4-methoxybenzyl)piperazin-1-yl)-7-azaspiro[3.5]non-7-yl)-N-((6-nitro-7-(((tetrahydro-2H-pyran-4-yl)methyl)amino)-1H benzo[d]imidazol-4-yl)sulfonyl)benzamide], the IC50 is < 10 nM.

On to `COc1ccc(CN2CCN(C3CC4(CCN(c5ccc(C(=O)NS(=O)(=O)c6cc([N+](=O)[O-])c(NCC7(F)CCOCC7)c7[nH]cnc67)c(N6CCOc7nc8[nH]ccc8cc76)c5)CC4)C3)C(c3ccccc3C(C)C)C2)cc1` (stereo not drawn) [compound 093, 2-(2,3-dihydropyrrolo[3′,2′:5,6]pyridino[2,3-b][1,4]oxazin-1 (6H)-yl)-N-((7-(((4-fluorotetrahydro-2H-pyran-4-yl)methyl)amino)-6-nitro-1H-benzo[d]imidazol-4-yl)sulfonyl)-4-(2-(2-(2-isopropylphenyl)-4-(4-methoxybenzyl)piperazin-1-yl)-7-azaspiro[3.5]non-7-yl)benzamide], for which the IC50 was < 10 nM.

For `COc1ccc(CN2CCN(C3CC4(CCN(c5ccc(C(=O)NS(=O)(=O)c6cc([N+](=O)[O-])c(NCC7(F)CCOCC7)c7[nH]cnc67)c(N6CCCOc7nc8[nH]ccc8cc76)c5)CC4)C3)C(c3ccccc3C(C)C)C2)cc1` (stereo not drawn) [compound 094, 2-(3,4-dihydro-2H-pyrrolo[3′,2′:5,6]pyridino[2,3-b][1,4]oxazacycloheptane-1 (7H)-yl)-N-((7-(((4-fluorotetrahydro-2H-pyran-4-yl)methyl)amino)-6-nitro-1H-benzo[d]imidazol-4-yl)sulfonyl)-4-(2-(2-(2-isopropylphenyl)-4-(4-methoxybenzyl)piperazin-1-yl)-7-azaspiro[3.5]non-7-yl)benzamide], the IC50 was < 10 nM.

Consider `CC(C)c1ccccc1[C@@H]1CCCN1C1CC2(CCN(c3cc(Oc4cnc5[nH]ccc5c4)c(C(=O)NS(=O)(=O)c4cc([N+](=O)[O-])c(NC[C@H]5CC[C@](C)(O)CC5)c5occc45)cc3F)CC2)C1` [compound 095, 2-((1H-pyrrolo[2,3-b]pyrid-5-yl)oxy)-5-fluoro-N-((7-((((1r, 4r)-4-hydroxy-4-methylcyclohexyl)methyl)amino)-6-nitrobenzofuran-4-yl)sulfonyl)-4-(2-((S)-2-(2-isopropylphenyl)pyrrolidin-1-yl)-7-azaspiro[3.5]non-7-yl)benzamide], for which the 50% inhibitory concentration (IC50) was < 10 nM.

With `CC(C)c1ccccc1[C@@H]1CCCN1C1CC2(CCN(c3cc(Oc4cnc5[nH]ccc5c4)c(C(=O)NS(=O)(=O)c4cc([N+](=O)[O-])c(NC[C@H]5CC[C@](C)(O)CC5)c5c4OCO5)cc3F)CC2)C1` [compound 096, 2-((1H-pyrrolo[2,3-b]pyrid-5-yl)oxy)-5-fluoro-N-((7-((((1r, 4r)-4-hydroxy-4-methylcyclohexyl)methyl)amino)-6-nitrobenzo[d][1,3]dioxocyclopent-4-yl)sulfonyl)-4-(2-((S)-2-(2-isopropylphenyl)pyrrolidin-1-yl)-7-azaspiro[3.5]non-7-yl)benzamide], the IC50 was < 10 nM.

Take `CC(C)c1ccccc1[C@@H]1CCCN1C1CC2(CCN(c3cc(Oc4cnc5[nH]ccc5c4)c(C(=O)NS(=O)(=O)c4cc([N+](=O)[O-])c(NC[C@H]5CC[C@](C)(O)CC5)c5ocnc45)cc3F)CC2)C1` [compound 097, 2-((1H-pyrrolo[2,3-b]pyrid-5-yl)oxy)-5-fluoro-N-((7-((((1r, 4r)-4-hydroxy-4-methylcyclohexyl)methyl)amino)-6-nitrobenzo[d]oxazol-4-yl)sulfonyl)-4-(2-((S)-2-(2-isopropylphenyl)pyrrolidin-1-yl)-7-azaspiro[3.5]non-7-yl)benzamide]: the IC50 is < 10 nM.

As for `CC(C)c1ccccc1[C@@H]1CCCN1C1CC2(CCN(c3cc(Oc4cnc5[nH]ccc5c4)c(C(=O)NS(=O)(=O)c4cc([N+](=O)[O-])c(NC[C@H]5CC[C@](C)(O)CC5)c5scnc45)cc3F)CC2)C1` [compound 098, 2-((1H-pyrrolo[2,3-b]pyrid-5-yl)oxy)-5-fluoro-N-((7-((((1r, 4r)-4-hydroxy-4-methylcyclohexyl)methyl)amino)-6-nitrobenzo[d]thiazol-4-yl)sulfonyl)-4-(2-((S)-2-(2-isopropylphenyl)pyrrolidin-1-yl)-7-azaspiro[3.5]non-7-yl)benzamide], the half-maximal inhibitory concentration (IC50) was < 10 nM.

As to `CC(C)c1ccccc1[C@@H]1CCCN1C1CC2(CCN(c3cc(Oc4cnc5[nH]ccc5c4)c(C(=O)NS(=O)(=O)c4cc([N+](=O)[O-])c(NC[C@H]5CC[C@](C)(O)CC5)c5c4OCCO5)cc3F)CC2)C1` [compound 099, 2-((1H-pyrrolo[2,3-b]pyrid-5-yl)oxy)-5-fluoro-N-((8-((((1r, 4r)-4-hydroxy-4-methylcyclohexyl)methyl)amino)-7-nitro-2,3-dihydrobenzo[b][1,4]dioxan-5-yl)sulfonyl)-4-(2-((S)-2-(2-isopropylphenyl)pyrrolidin-1-yl)-7-azaspiro[3.5]non-7-yl)benzamide], the IC50 is < 10 nM.

Take `CC(C)c1ccccc1[C@@H]1CCCN1C1CC2(CCN(c3cc(Oc4cnc5[nH]ccc5c4)c(C(=O)NS(=O)(=O)c4cc([N+](=O)[O-])c(NC[C@H]5CC[C@](C)(O)CC5)c5c4CCO5)cc3F)CC2)C1` [compound 100, 2-((1H-pyrrolo[2,3-b]pyrid-5-yl)oxy)-5-fluoro-N-((7-((((1r, 4r)-4-hydroxy-4-methylcyclohexyl)methyl)amino)-6-nitro-2,3-dihydrobenzofuran-4-yl)sulfonyl)-4-(2-((S)-2-(2-isopropylphenyl)pyrrolidin-1-yl)-7-azaspiro[3.5]non-7-yl)benzamide]: the IC50 was < 10 nM.

`CC(C)c1ccccc1[C@@H]1CCCN1C1CC2(CCN(c3cc(Oc4cnc5[nH]ccc5c4)c(C(=O)NS(=O)(=O)c4cc([N+](=O)[O-])c(NCC5(F)CCOCC5)c5c4OCO5)cc3F)CC2)C1` [compound 101, (S)-2-((1H-pyrrolo[2,3-b]pyrid-5-yl)oxy)-5-fluoro-N-((7-(((4-fluorotetrahydro-2H-pyran-4-yl)methyl)amino)-6-nitrobenzo[d][1,3]dioxocyclopent-4-yl)sulfonyl)-4-(2-(2-(2-isopropylphenyl)pyrrolidin-1-yl)-7-azaspiro[3.5]non-7-yl)benzamide]: the half-maximal inhibitory concentration (IC50) was < 10 nM.

Turning to `CC(C)c1ccccc1[C@@H]1CCCN1C1CC2(CCN(c3cc(Oc4cnc5[nH]ccc5c4)c(C(=O)NS(=O)(=O)c4cc([N+](=O)[O-])c(NCC5(F)CCOCC5)c5occc45)cc3F)CC2)C1` [compound 102, (S)-2-((1H-pyrrolo[2,3-b]pyrid-5-yl)oxy)-5-fluoro-N-((7-(((4-fluorotetrahydro-2H-pyran-4-yl)methyl)amino)-6-nitrobenzofuran-4-yl)sulfonyl)-4-(2-(2-(2-isopropylphenyl)pyrrolidin-1-yl)-7-azaspiro[3.5]non-7-yl)benzamide], the IC50 is < 10 nM.

With `CC(C)c1ccccc1[C@@H]1CCCN1C1CC2(CCN(c3cc(Oc4cnc5[nH]ccc5c4)c(C(=O)NS(=O)(=O)c4cc([N+](=O)[O-])c(NCC5(F)CCOCC5)c5ocnc45)cc3F)CC2)C1` [compound 103, (S)-2-((1H-pyrrolo[2,3-b]pyrid-5-yl)oxy)-5-fluoro-N-((7-(((4-fluorotetrahydro-2H-pyran-4-yl)methyl)amino)-6-nitrobenzo[d]oxazol-4-yl)sulfonyl)-4-(2-(2-(2-isopropylphenyl)pyrrolidin-1-yl)-7-azaspiro[3.5]non-7-yl)benzamide], the IC50 is < 10 nM.

Regarding `CC(C)c1ccccc1[C@@H]1CCCN1C1CC2(CCN(c3cc(Oc4cnc5[nH]ccc5c4)c(C(=O)NS(=O)(=O)c4cc([N+](=O)[O-])c(NCC5(F)CCOCC5)c5scnc45)cc3F)CC2)C1` [compound 104, (S)-2-((1H-pyrrolo[2,3-b]pyrid-5-yl)oxy)-5-fluoro-N-((7-(((4-fluorotetrahydro-2H-pyran-4-yl)methyl)amino)-6-nitrobenzo[d]thiazol-4-yl)sulfonyl)-4-(2-(2-(2-isopropylphenyl)pyrrolidin-1-yl)-7-azaspiro[3.5]non-7-yl)benzamide], the IC50 was < 10 nM.

For `CC(C)c1ccccc1[C@@H]1CCCN1C1CC2(CCN(c3cc(Oc4cnc5[nH]ccc5c4)c(C(=O)NS(=O)(=O)c4cc([N+](=O)[O-])c(NCC5(F)CCOCC5)c5c4CCO5)cc3F)CC2)C1` [compound 105, (S)-2-((1H-pyrrolo[2,3-b]pyrid-5-yl)oxy)-5-fluoro-N-((7-(((4-fluorotetrahydro-2H-pyran-4-yl)methyl)amino)-6-nitro-2,3-dihydrobenzofuran-4-yl)sulfonyl)-4-(2-(2-(2-isopropylphenyl)pyrrolidin-1-yl)-7-azaspiro[3.5]non-7-yl)benzamide], the IC50 is < 10 nM.
